Test results taken from EP3352763B1 (priority 2015, dated 2017).

Tests used:
[1] = system: Influenzavirus A/Regensburg/D6/2009/H1N1; assay: Screening of antiviral effect of test substances (Fig. 1); type: cell-based; conditions: for antivirale Aktivität: Fig. 1, result in words
[2] = system: A/Mississippi/3/2001/H1N1; type: cell-based, Influenzaviren; conditions: TC50/EC50, A/Mississippi/3/2001/H1N1
[3] = system: Influenza-Viren vom Stamm A/Regensburg/D6/2009/H1N1; type: cell-based
in vitro [4] = conditions: monkey, vero cells
[5] = system: A/Regensburg/D6/2009/H1N1; type: cell-based, Influenzaviren; conditions: TC50/EC50, A/Regensburg/D6/2009/H1N1
A/Victoria/3/75/H3N2 = type: cell-based, Influenzaviren
in vitro [6] = conditions: dog, mdck
Hantaviren = type: cell-based

| SMILES | antivirale Aktivität [1] | TC50 (A549-Zellen) [µM] | Selektivitätsindex (S.I.) [2] | antivirale Wirkung (Reduktion der Viruslast) [3] [%] | antiviraler Effekt [3] | Reduktion der Viruslast ([3]; pre-incubation of the viruses with Tilirosid) | Reduktion der Viruslast ([1]; Fig. 1, screening of substances) [%] | CC50 (in vitro [4]) [µM] | Selektivitätsindex (S.I.) [5] | Selektivitätsindex (S.I.) (A/Victoria/3/75/H3N2) | CC50 (in vitro [6]) [µM] | Wirkung gegen Hantaviren (Hantaviren) |
| --- | --- | --- | --- | --- | --- | --- | --- | --- | --- | --- | --- | --- |
| O=C(O)c1cc(O)c(O)c(O)c1 [Gallussäure, reference compound] | antivirale Aktivität |  |  |  |  |  |  |  |  |  |  |  |
| O=C(/C=C/c1ccc(O)cc1)OC[C@H]1O[C@@H](Oc2c(-c3ccc(O)cc3)oc3cc(O)cc(O)c3c2=O)[C@H](O)[C@@H](O)[C@@H]1O [Tilirosid, Kaempferol-3-(6"-trans-p-coumaroyl)glucosid] | höchste antivirale Aktivität | 1.862 | 2.906 | > 90 | keinen antiviralen Effekt | keiner Reduktion der Viruslast | > 90 | 126 | 433 | 134 | 932 | nicht gegen Hantaviren wirkt |
